{
  "source": "patent US20080176932A1",
  "about": "“Pharmaceutical Compositions Containing Baicalein And Baicalin With Synergistic Effect In Tumor Treatment” (priority 2005, published 2008)",
  "key": {"[1]": {"system": "human liver cancer cell line HepG2", "assay": "MTT growth inhibition, baicalein and baicalin single or combination", "format": "cell-based", "from_the_text": "The results of experiments with human liver cancer cell line HepG2 are illustrated in Table 1;"}, "[2]": {"system": "Human colon cancer cell line HCT116", "assay": "MTT growth inhibition, baicalein and baicalin single or combination", "format": "cell-based", "from_the_text": "Human colon cancer cell line HCT116—Table 2;"}, "[3]": {"system": "Human hung cancer cell line A549", "assay": "MTT growth inhibition, baicalein and baicalin single or combination", "format": "cell-based", "from_the_text": "Human hung cancer cell line A549—Table 3;"}, "[4]": {"system": "Human gastric cancer cell line MKN28", "assay": "MTT growth inhibition, baicalein and baicalin single or combination", "format": "cell-based", "from_the_text": "Human gastric cancer cell line MKN28—Table 4;"}, "[5]": {"system": "Human leukemia cell line HL60", "assay": "MTT growth inhibition, baicalein and baicalin single or combination", "format": "cell-based", "from_the_text": "Human leukemia cell line HL60—Table 8."}, "[6]": {"system": "Murine melanoma cell line B 16", "assay": "Solid tumor transplant model, baicalein and baicalin", "format": "in vivo", "conditions": "B16 mice, day 1-10; for Final Tumor WT. (g) Mean ± SD / Tumor Growth Inhibition %: day 15", "procedure": "C57BL/6 female mice (weight approximately 20 g) were used in this study. Murine melanoma cell line B 16 cells, 2×10^6 tumor cells were implanted s.c. into the armpit of each mice after two passenges in vitro cultured. On the next day after implantation, mice were randomly grouped at 10 per group and received 0.1 ml/10 g weight of the drugs. […] The number of mice of each group was 10. Mice were weighed before and post the treatment. Animals were killed on day 15, and the tumors were removed and weighted."}, "L1210 cells": {"system": "L1210 cells", "format": "in vivo", "conditions": "day 1-10; for ILS(%) increase of life span: L1210 mice", "procedure": "L1210 cells on the growth phase were injected at 1×10^5 cells via I.P. into BDF1 female mice (weight approximately 20 g). The next day of implantation, mice were grouped, and received an injection of 0.1 ml/10 g weight of the drug. […] The number of mice of each group was 10. Mice were weighed before and after the treatment. Survival time of each mouse was recorded. The results of changes in increasing of life span of mice were used in assessment of response. The increase of life span was determined as; increase of life span rate=(median survival time of treated animals/median survival time of control animals−1)×100%, the data were analyzed by t-test."}, "[7]": {"system": "Human esophagus cancer cell line TE2"}, "[8]": {"system": "Human breast cancer cell line MCF-7"}, "[9]": {"system": "Human prostate cancer cell line PC3"}},
  "note": "Where two headings read alike, the source gives them in different places.",
  "data": [
    {"smiles": "O=C(O)[C@H]1O[C@@H](Oc2cc3oc(-c4ccccc4)cc(=O)c3c(O)c2O)[C@H](O)[C@@H](O)[C@@H]1O", "note": "[BG, baicalin]", "values": [
      {"measurement": "Inhibition of cell growth (%)", "setting": "[1]; single dose 2.5 μm", "result": "16.63 ± 2", "unit": "%"},
      {"measurement": "Inhibition of cell growth (%)", "setting": "[1]; single dose 5 μm", "result": "16.8 ± 2", "unit": "%"},
      {"measurement": "Inhibition of cell growth (%)", "setting": "[1]; single dose 10 μm", "result": "34.93 ± 3.8", "unit": "%"},
      {"measurement": "Inhibition of cell growth (%)", "setting": "[1]; single dose 20 μm", "result": "50 ± 2.9", "unit": "%"},
      {"measurement": "Inhibition of cell growth (%)", "setting": "[1]; single dose 40 μm", "result": "86.69 ± 3", "unit": "%"},
      {"measurement": "Inhibition of cell growth (%)", "setting": "[2]; single dose 2.5 μm", "result": "17 ± 2", "unit": "%"},
      {"measurement": "Inhibition of cell growth (%)", "setting": "[2]; single dose 5 μm", "result": "20 ± 3.2", "unit": "%"},
      {"measurement": "Inhibition of cell growth (%)", "setting": "[2]; single dose 10 μm", "result": "27 ± 3", "unit": "%"},
      {"measurement": "Inhibition of cell growth (%)", "setting": "[2]; single dose 20 μm", "result": "33.75 ± 3", "unit": "%"},
      {"measurement": "Inhibition of cell growth (%)", "setting": "[2]; single dose 40 μm", "result": "90 ± 2", "unit": "%"},
      {"measurement": "Inhibition of cell growth (%)", "setting": "[3]; single dose 2.5 μm", "result": "9.8 ± 2", "unit": "%"},
      {"measurement": "Inhibition of cell growth (%)", "setting": "[3]; single dose 5 μm", "result": "17 ± 3", "unit": "%"},
      {"measurement": "Inhibition of cell growth (%)", "setting": "[3]; single dose 10 μm", "result": "30.58 ± 3.2", "unit": "%"},
      {"measurement": "Inhibition of cell growth (%)", "setting": "[3]; single dose 20 μm", "result": "53.58 ± 4", "unit": "%"},
      {"measurement": "Inhibition of cell growth (%)", "setting": "[3]; single dose 40 μm", "result": "92 ± 3", "unit": "%"},
      {"measurement": "Inhibition of cell growth (%)", "setting": "[4]; single dose 2.5 μm", "result": "5.2 ± 2", "unit": "%"},
      {"measurement": "Inhibition of cell growth (%)", "setting": "[4]; single dose 5 μm", "result": "12 ± 3", "unit": "%"},
      {"measurement": "Inhibition of cell growth (%)", "setting": "[4]; single dose 10 μm", "result": "30.2 ± 2.9", "unit": "%"},
      {"measurement": "Inhibition of cell growth (%)", "setting": "[4]; single dose 20 μm", "result": "62 ± 3.2", "unit": "%"},
      {"measurement": "Inhibition of cell growth (%)", "setting": "[4]; single dose 40 μm", "result": "85.22 ± 2", "unit": "%"},
      {"measurement": "Inhibition of cell growth (%)", "setting": "[5]; single dose 2.5 μm", "result": "5 ± 2", "unit": "%"},
      {"measurement": "Inhibition of cell growth (%)", "setting": "[5]; single dose 5 μm", "result": "8.6 ± 3", "unit": "%"},
      {"measurement": "Inhibition of cell growth (%)", "setting": "[5]; single dose 10 μm", "result": "21 ± 4", "unit": "%"},
      {"measurement": "Inhibition of cell growth (%)", "setting": "[5]; single dose 20 μm", "result": "45.1 ± 2.9", "unit": "%"},
      {"measurement": "Inhibition of cell growth (%)", "setting": "[5]; single dose 40 μm", "result": "82.7 ± 2.3", "unit": "%"},
      {"measurement": "Final Tumor WT. (g) Mean ± SD", "setting": "[6]; BG 25 mg/kg i.p.", "result": "1.81 ± 0.1", "unit": "g"},
      {"measurement": "Tumor Growth Inhibition %", "setting": "[6]; BG 25 mg/kg i.p.", "result": 16.97, "unit": "%"},
      {"measurement": "Final Tumor WT. (g) Mean ± SD", "setting": "[6]; BG 50 mg/kg i.p.", "result": "1.77 ± 0.117", "unit": "g"},
      {"measurement": "Tumor Growth Inhibition %", "setting": "[6]; BG 50 mg/kg i.p.", "result": 18.8, "unit": "%"},
      {"measurement": "Final Tumor WT. (g) Mean ± SD", "setting": "[6]; BG 100 mg/kg i.p.", "result": "1.51 ± 0.11", "unit": "g"},
      {"measurement": "Tumor Growth Inhibition %", "setting": "[6]; BG 100 mg/kg i.p.", "result": 30.7, "unit": "%"},
      {"measurement": "Final Tumor WT. (g) Mean ± SD", "setting": "[6]; BG 200 mg/kg i.p.", "result": "1.28 ± 0.07", "unit": "g"},
      {"measurement": "Tumor Growth Inhibition %", "setting": "[6]; BG 200 mg/kg i.p.", "result": 41.28, "unit": "%"},
      {"measurement": "Weight Change %", "setting": "[6]; BG 25 mg/kg i.p.", "result": "<5", "unit": "%"},
      {"measurement": "Weight Change %", "setting": "[6]; BG 50 mg/kg i.p.", "result": "<5", "unit": "%"},
      {"measurement": "Weight Change %", "setting": "[6]; BG 100 mg/kg i.p.", "result": "<5", "unit": "%"},
      {"measurement": "Weight Change %", "setting": "[6]; BG 200 mg/kg i.p.", "result": "<5", "unit": "%"},
      {"measurement": "Number of mice Surviving through 15 days/total number", "setting": "L1210 cells; BG 25 mg/kg i.p.", "result": "10/10"},
      {"measurement": "Number of mice Surviving through 15 days/total number", "setting": "L1210 cells; BG 50 mg/kg i.p.", "result": "10/10"},
      {"measurement": "Number of mice Surviving through 15 days/total number", "setting": "L1210 cells; BG 100 mg/kg i.p.", "result": "10/10"},
      {"measurement": "Number of mice Surviving through 15 days/total number", "setting": "L1210 cells; BG 200 mg/kg i.p.", "result": "10/10"},
      {"measurement": "ILS(%) increase of life span", "setting": "L1210 cells; BG 25 mg/kg i.p.", "result": 17.3, "unit": "%"},
      {"measurement": "ILS(%) increase of life span", "setting": "L1210 cells; BG 50 mg/kg i.p.", "result": 27.55, "unit": "%"},
      {"measurement": "ILS(%) increase of life span", "setting": "L1210 cells; BG 100 mg/kg i.p.", "result": 38.27, "unit": "%"},
      {"measurement": "ILS(%) increase of life span", "setting": "L1210 cells; BG 200 mg/kg i.p.", "result": 50, "unit": "%"},
      {"measurement": "Inhibition of cell growth (%)", "setting": "[7]; single dose 2.5 μm", "result": "6.2 ± 1.8", "unit": "%"},
      {"measurement": "Inhibition of cell growth (%)", "setting": "[7]; single dose 10 μm", "result": "28.2 ± 2.5", "unit": "%"},
      {"measurement": "Inhibition of cell growth (%)", "setting": "[7]; single dose 20 μm", "result": "49.8 ± 1.78", "unit": "%"},
      {"measurement": "Inhibition of cell growth (%)", "setting": "[7]; single dose 40 μm", "result": "72.7 ± 2.1", "unit": "%"},
      {"measurement": "Inhibition of cell growth (%)", "setting": "[8]; single dose 2.5 μm", "result": "0.5 ± 2.7", "unit": "%"},
      {"measurement": "Inhibition of cell growth (%)", "setting": "[8]; single dose 5 μm", "result": "10.2 ± 1", "unit": "%"},
      {"measurement": "Inhibition of cell growth (%)", "setting": "[8]; single dose 10 μm", "result": "48.02 ± 2", "unit": "%"},
      {"measurement": "Inhibition of cell growth (%)", "setting": "[8]; single dose 20 μm", "result": "60.35 ± 3", "unit": "%"},
      {"measurement": "Inhibition of cell growth (%)", "setting": "[9]; single dose 2.5 μm", "result": "1 ± 3", "unit": "%"},
      {"measurement": "Inhibition of cell growth (%)", "setting": "[9]; single dose 5 μm", "result": "17.9 ± 5", "unit": "%"},
      {"measurement": "Inhibition of cell growth (%)", "setting": "[9]; single dose 10 μm", "result": "47 ± 8", "unit": "%"},
      {"measurement": "Inhibition of cell growth (%)", "setting": "[9]; single dose 20 μm", "result": "62 ± 7", "unit": "%"},
      {"measurement": "Inhibition of cell growth (%)", "setting": "[9]; single dose 40 μm", "result": "88 ± 7", "unit": "%"}
    ]}
  ]
}
